From article PMC10882719 (Frontiers in Neuroscience, 2024)
Where two headings read alike, the source gives them in different places.

Key:
Type in all cases: cell-based
168 GPCRs [1] = target: T1, 168 GPCRs (Homo sapiens, UniProt Q9UBY5)
T1 construct: host or cells: PathHunter cell lines
T1 sequence (Q9UBY5 1-353): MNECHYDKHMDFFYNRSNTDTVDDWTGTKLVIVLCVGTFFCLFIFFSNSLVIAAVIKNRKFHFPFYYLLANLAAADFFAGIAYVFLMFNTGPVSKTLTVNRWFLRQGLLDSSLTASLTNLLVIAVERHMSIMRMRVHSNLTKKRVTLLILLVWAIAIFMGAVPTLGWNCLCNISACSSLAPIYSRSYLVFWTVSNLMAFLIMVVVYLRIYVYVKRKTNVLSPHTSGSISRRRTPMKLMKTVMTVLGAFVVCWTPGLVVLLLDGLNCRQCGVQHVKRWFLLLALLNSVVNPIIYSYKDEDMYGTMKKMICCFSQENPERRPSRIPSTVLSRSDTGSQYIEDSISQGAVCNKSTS

168 GPCRs [2] = target: T2, 168 GPCRs (Homo sapiens, UniProt P18825); details: ADRA2C
T2 construct: host or cells: PathHunter cell lines
T2 sequence (P18825 1-462): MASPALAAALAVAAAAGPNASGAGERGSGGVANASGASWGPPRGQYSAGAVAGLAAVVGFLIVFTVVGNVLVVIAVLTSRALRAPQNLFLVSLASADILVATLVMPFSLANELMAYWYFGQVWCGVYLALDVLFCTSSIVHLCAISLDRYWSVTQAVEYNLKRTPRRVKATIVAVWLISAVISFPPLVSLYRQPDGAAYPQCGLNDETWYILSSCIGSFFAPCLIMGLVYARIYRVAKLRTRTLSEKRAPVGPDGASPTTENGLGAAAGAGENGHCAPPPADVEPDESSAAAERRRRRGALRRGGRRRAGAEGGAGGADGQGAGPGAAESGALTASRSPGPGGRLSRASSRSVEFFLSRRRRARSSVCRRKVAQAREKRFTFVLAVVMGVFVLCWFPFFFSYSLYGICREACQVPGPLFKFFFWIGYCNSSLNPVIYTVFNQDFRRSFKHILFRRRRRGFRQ

168 GPCRs [3] = target: T3, 168 GPCRs (Homo sapiens, UniProt P24530); details: EDNRB
T3 construct: host or cells: PathHunter cell lines
T3 sequence (P24530 27-442): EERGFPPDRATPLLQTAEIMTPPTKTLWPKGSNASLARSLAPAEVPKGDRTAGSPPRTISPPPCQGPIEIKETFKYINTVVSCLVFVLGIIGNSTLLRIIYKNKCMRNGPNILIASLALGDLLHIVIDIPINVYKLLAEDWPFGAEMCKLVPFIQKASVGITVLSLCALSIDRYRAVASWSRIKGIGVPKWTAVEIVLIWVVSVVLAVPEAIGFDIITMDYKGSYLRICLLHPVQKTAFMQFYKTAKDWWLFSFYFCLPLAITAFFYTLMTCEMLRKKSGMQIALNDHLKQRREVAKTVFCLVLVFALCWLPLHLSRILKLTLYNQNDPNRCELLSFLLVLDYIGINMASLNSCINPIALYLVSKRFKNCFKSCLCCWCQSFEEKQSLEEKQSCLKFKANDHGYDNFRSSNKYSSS

168 GPCRs [4] = target: T4, 168 GPCRs (Homo sapiens, UniProt O95838); details: GLP2R
T4 construct: host or cells: PathHunter cell lines
T4 sequence (O95838 1-553): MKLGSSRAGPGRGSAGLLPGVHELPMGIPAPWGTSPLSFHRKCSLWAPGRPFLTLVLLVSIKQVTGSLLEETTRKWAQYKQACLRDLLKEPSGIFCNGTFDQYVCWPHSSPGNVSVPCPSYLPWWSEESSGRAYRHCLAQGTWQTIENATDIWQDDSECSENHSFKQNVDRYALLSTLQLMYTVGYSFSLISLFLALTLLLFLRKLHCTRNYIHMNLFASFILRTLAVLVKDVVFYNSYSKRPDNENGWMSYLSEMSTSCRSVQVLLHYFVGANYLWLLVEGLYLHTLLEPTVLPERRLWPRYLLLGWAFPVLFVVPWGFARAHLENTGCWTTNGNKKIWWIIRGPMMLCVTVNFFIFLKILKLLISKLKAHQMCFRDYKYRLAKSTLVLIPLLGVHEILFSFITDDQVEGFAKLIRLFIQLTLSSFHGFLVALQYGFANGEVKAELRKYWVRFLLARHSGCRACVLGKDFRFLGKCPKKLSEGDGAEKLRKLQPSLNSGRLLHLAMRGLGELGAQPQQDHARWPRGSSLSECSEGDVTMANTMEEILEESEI

168 GPCRs [5] = target: T5, 168 GPCRs (Homo sapiens, UniProt P47900); details: P2RY1
T5 construct: host or cells: PathHunter cell lines
T5 sequence (P47900 whole entry): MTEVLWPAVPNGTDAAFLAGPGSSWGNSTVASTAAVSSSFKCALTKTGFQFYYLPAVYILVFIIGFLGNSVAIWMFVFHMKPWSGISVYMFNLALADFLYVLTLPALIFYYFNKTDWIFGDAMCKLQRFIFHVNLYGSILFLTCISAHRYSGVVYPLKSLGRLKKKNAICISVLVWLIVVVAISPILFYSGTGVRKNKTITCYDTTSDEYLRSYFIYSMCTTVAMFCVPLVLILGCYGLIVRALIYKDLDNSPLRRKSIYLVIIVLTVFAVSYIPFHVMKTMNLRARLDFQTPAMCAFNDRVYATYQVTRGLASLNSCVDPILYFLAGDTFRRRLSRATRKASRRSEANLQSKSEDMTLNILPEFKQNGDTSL

Structure (SMILES) | % Agonist Activity (168 GPCRs [1]; EDG7, 1 uM) [%] | % Antagonist Activity (168 GPCRs [1]; EDG7, 1 uM) [%] | % Agonist Activity (168 GPCRs [1]; EDG7, 10 uM) [%] | % Antagonist Activity (168 GPCRs [1]; EDG7, 10 uM) [%] | % Agonist Activity (168 GPCRs [2]; 1 uM) [%] | % Antagonist Activity (168 GPCRs [2]; 1 uM) [%] | % Agonist Activity (168 GPCRs [2]; 10 uM) [%] | % Antagonist Activity (168 GPCRs [2]; 10 uM) [%] | % Agonist Activity (168 GPCRs [3]; 1 uM) [%] | % Antagonist Activity (168 GPCRs [3]; 1 uM) [%] | % Agonist Activity (168 GPCRs [3]; 10 uM) [%] | % Antagonist Activity (168 GPCRs [3]; 10 uM) [%] | % Agonist Activity (168 GPCRs [4]; 1 uM) [%] | % Antagonist Activity (168 GPCRs [4]; 1 uM) [%] | % Agonist Activity (168 GPCRs [4]; 10 uM) [%] | % Antagonist Activity (168 GPCRs [4]; 10 uM) [%] | % Agonist Activity (168 GPCRs [5]; Conc 1 uM) [%] | % Antagonist Activity (168 GPCRs [5]; Conc 1 uM) [%] | % Agonist Activity (168 GPCRs [5]; Conc 10 uM) [%] | % Antagonist Activity (168 GPCRs [5]; Conc 10 uM) [%]
CNC(C)Cc1ccc2c(c1)OCO2 (stereo not shown) [MDMA, 3,4-Methylenedioxy methamphetamine, reference compound] | -2.8 | -7 | -2.4 | 0.8 | 3.9 | 16.4 | 6.9 | 38.1 | 0 | 2.5 | -0.3 | 6.4 | 0 | 3.4 | -5 | 1.1 | 0.3 | 2.8 | -0.8 | 1.2
CNC(C)C(=O)c1ccc2c(c1)OCO2 (stereo not shown) [methylone] | 3 | 19.5 | 1.1 | 17.9 | -2.5 | -4.3 | 0.1 | 17.6 | 0.7 | 17.5 | -0.1 | 10.9 | -1.5 | 5.4 | -1 | 5.4 | 2.2 | 14.5 | -4.1 | 14.9
